Results taken from US10588317B2, “Isoxazoline-substituted benzamides and analogues as insecticides” (priority 2015, dated 2020).

Experiments:
Type in all cases: in vivo
[1] = test system: Diabrotica balteata; experiment: Diabrotica balteata (corn root worm), sprayed maize sprouts; settings: 96 h, application rate 200 ppm, L2 larvae, 4 days after infestation, read-out: effect in at least one of the two categories (mortality or growth inhibition)
How it was run: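 Maize sprouts on agar sprayed with aqueous dilutions of DMSO stocks, dried, then infested with L2 larvae (6–10 per well). Mortality and growth inhibition scored against untreated controls 4 days after infestation, at 200 ppm application rate.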

[2] = test system: Euschistus heros; experiment: Euschistus heros (neotropical brown stink bug), sprayed soybean leaves; settings: 120 h, application rate 200 ppm, N2 nymphs, 5 days after infestation, read-out: effect in at least one of the two categories (mortality or growth inhibition)
How it was run: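 Soybean leaves on agar sprayed with aqueous dilutions of DMSO stocks, dried, then infested with N2 nymphs. Mortality and growth inhibition scored against untreated samples 5 days after infestation; application rate 200 ppm.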

[3] = test system: Myzus persicae; experiment: Myzus persicae (green peach aphid): feeding/contact activity; settings: 144 h, application rate 200 ppm, aphid population of mixed ages, 6 days after infestation, read-out: mortality
Description: (§1) Sunflower leaf discs were placed onto agar in a 24-well microtiter plate and sprayed with aqueous test solutions prepared from 10'000 ppm DMSO stock solutions. After drying, the leaf discs were infested with an aphid population of mixed ages. The samples were assessed for mortality 6 days after infestation.

[4] = test system: Plutella xylostella; experiment: Plutella xylostella (diamond back moth), artificial diet; settings: 120 h, application rate 200 ppm, L2 larvae, 5 days after infestation, read-out: effect in at least one of the two categories (mortality or growth inhibition)
How it was run: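 Artificial diet in 24-well plates treated with aqueous test solutions made from 10'000 ppm DMSO stocks, dried, then infested with L2 larvae (10 to 15 per well). Mortality and growth inhibition scored against untreated samples 5 days after infestation; activity cut-off at least 80% in either category at 200 ppm.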

[5] = test system: Spodoptera littoralis; experiment: Spodoptera littoralis (Egyptian cotton leaf worm), sprayed cotton leaf discs; settings: foliar, 72 h, application rate 200 ppm, L1 larvae, 3 days after infestation, read-out: control (mortality, anti-feeding effect, growth inhibition)
How it was run: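 Cotton leaf discs on agar sprayed with aqueous test solutions made from 10'000 ppm DMSO stock; after drying, infested with five L1 larvae. Mortality, anti-feeding and growth inhibition scored versus untreated samples 3 days after infestation; control counted when any category exceeds untreated.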

[6] = test system: Spodoptera littoralis; experiment: Spodoptera littoralis (Egyptian cotton leaf worm), uptake by lettuce roots from agar; settings: 144 h, read-out: effect in at least one of the three categories (mortality, anti-feeding, or growth inhibition)
How it was run: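 Compound from 10'000 ppm DMSO stocks was mixed into agar, and lettuce grew on it for 7 days to take it up via roots. Cut leaves were infested with Spodoptera eggs; mortality, anti-feedant effect and growth inhibition scored 6 days later versus untreated samples.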

[7] = test system: Tetranychus urticae; experiment: Tetranychus urticae (two-spotted spider mite): feeding/contact activity; settings: 192 h, application rate 200 ppm, mixed population (mobile stages), 8 days after infestation, read-out: mortality
Description: Bean leaf discs on agar in 24-well microtiter plates were sprayed with aqueous test solutions prepared from 10'000 ppm DMSO stock solutions. After drying the leaf discs were infested with a mite population of mixed ages. The samples were assessed for mortality on mixed population (mobile stages) 8 days after infestation.

[8] = test system: Thrips tabaci; experiment: Thrips tabaci (onion thrips): feeding/contact activity; settings: 144 h, application rate 200 ppm, Thrips population of mixed ages, 6 days after infestation, read-out: mortality
Description: as §1, with “on” for “onto”, “in” for “in a”, “plates” for “plate”, “drying” for “drying,”, “a Thrips” for “an aphid”

C=CCN(C)S(=O)(=O)N1CC(NC(=O)c2ccc(C3=NO[C@@](c4cc(Cl)c(Cl)c(Cl)c4)(C(F)(F)F)C3)cc2C)CO1 (stereo partly drawn) [Compound A82, N-[2-[allyl(methyl)sulfamoyl]isoxazolidin-4-yl]-2-methyl-4-[(5S)-5-(3,4,5-trichlorophenyl)-5-(trifluoromethyl)-4H-isoxazol-3-yl]benzamide]
≥ 80%: percent effect (mortality or growth inhibition) at 200 ppm [1] | percent effect (mortality or growth inhibition) at 200 ppm [2] | mortality at 200 ppm [3] | percent effect (mortality or growth inhibition) at 200 ppm [4] | mortality at 200 ppm [5] | percent control (mortality, anti-feedant effect or growth inhibition) at 12.5 ppm [6] | mortality at 200 ppm [7] | mortality at 200 ppm [8]

CNS(=O)(=O)N1C[C@@H](NC(=O)c2ccc(C3=NO[C@@](c4cc(Cl)c(Cl)c(Cl)c4)(C(F)(F)F)C3)cc2C)CO1 [Compound A67, 2-methyl-N-[(4R)-2-(methylsulfamoyl)isoxazolidin-4-yl]-4-[(5S)-5-(3,4,5-trichlorophenyl)-5-(trifluoromethyl)-4H-isoxazol-3-yl]benzamide]
≥ 80%: percent effect (mortality or growth inhibition) at 200 ppm [1] | percent effect (mortality or growth inhibition) at 200 ppm [2] | mortality at 200 ppm [3] | percent effect (mortality or growth inhibition) at 200 ppm [4] | mortality at 200 ppm [5] | percent control (mortality, anti-feedant effect or growth inhibition) at 12.5 ppm [6] | mortality at 200 ppm [7] | mortality at 200 ppm [8]

Cc1cc(C2=NOC(c3cc(Cl)c(F)c(Cl)c3)(C(F)(F)F)C2)ccc1C(=O)NC1CON(S(C)(=O)=O)C1 (centres unmarked) [Compound A63]
≥ 80%: percent effect (mortality or growth inhibition) at 200 ppm [1] | percent effect (mortality or growth inhibition) at 200 ppm [2] | mortality at 200 ppm [3] | percent effect (mortality or growth inhibition) at 200 ppm [4] | mortality at 200 ppm [5] | percent control (mortality, anti-feedant effect or growth inhibition) at 12.5 ppm [6] | mortality at 200 ppm [7] | mortality at 200 ppm [8]

CCNS(=O)(=O)N1C[C@@H](NC(=O)c2ccc(C3=NO[C@@](c4cc(Cl)cc(Cl)c4)(C(F)(F)F)C3)cc2C)CO1 [Compound A135, 4-[(5S)-5-(3,5-dichlorophenyl)-5-(trifluoromethyl)-4H-isoxazol-3-yl]-N-[(4R)-2-(ethylsulfamoyl)isoxazolidin-4-yl]-2-methyl-benzamide]
≥ 80%: percent effect (mortality or growth inhibition) at 200 ppm [1] | percent effect (mortality or growth inhibition) at 200 ppm [2] | mortality at 200 ppm [3] | percent effect (mortality or growth inhibition) at 200 ppm [4] | mortality at 200 ppm [5] | percent control (mortality, anti-feedant effect or growth inhibition) at 12.5 ppm [6] | mortality at 200 ppm [7] | mortality at 200 ppm [8]

Cc1cc(C2=NO[C@@](c3cccc(C(F)(F)F)c3)(C(F)(F)F)C2)ccc1C(=O)N[C@H]1CON(S(C)(=O)=O)C1 [Compound A159]
≥ 80%: percent effect (mortality or growth inhibition) at 200 ppm [1] | percent effect (mortality or growth inhibition) at 200 ppm [2] | mortality at 200 ppm [3] | percent effect (mortality or growth inhibition) at 200 ppm [4] | mortality at 200 ppm [5] | percent effect (mortality, anti-feeding or growth inhibition) at 12.5 ppm ([6]; test rate 12.5 ppm, eggs, 6 days after infestation) | mortality at 200 ppm [7] | mortality at 200 ppm [8]

CCN(C)S(=O)(=O)N1CC(NC(=O)c2ccc(C3=NO[C@@](c4cc(Cl)c(Cl)c(Cl)c4)(C(F)(F)F)C3)cc2C)CO1 (stereo partly drawn) [Compound A73, N-[2-[ethyl(methyl)sulfamoyl]isoxazolidin-4-yl]-2-methyl-4-[(5S)-5-(3,4,5-trichlorophenyl)-5-(trifluoromethyl)-4H-isoxazol-3-yl]benzamide]
≥ 80%: percent effect (mortality or growth inhibition) at 200 ppm [1] | percent effect (mortality or growth inhibition) at 200 ppm [2] | mortality at 200 ppm [3] | percent effect (mortality or growth inhibition) at 200 ppm [4] | mortality at 200 ppm [5] | percent control (mortality, anti-feedant effect or growth inhibition) at 12.5 ppm [6] | mortality at 200 ppm [7] | mortality at 200 ppm [8]

CN(C)S(=O)(=O)N1C[C@@H](NC(=O)c2ccc(C3=NO[C@@](c4cc(Cl)cc(C(F)(F)F)c4)(C(F)(F)F)C3)cc2Cl)CO1 [Compound A108]
≥ 80%: percent effect (mortality or growth inhibition) at 200 ppm [1] | percent effect (mortality or growth inhibition) at 200 ppm [2] | mortality at 200 ppm [3] | percent effect (mortality or growth inhibition) at 200 ppm [4] | mortality at 200 ppm [5] | percent control (mortality, anti-feedant effect or growth inhibition) at 12.5 ppm [6] | mortality at 200 ppm [7] | mortality at 200 ppm [8]

CNS(=O)(=O)N1C[C@@H](NC(=O)c2ccc(C3=NO[C@@](c4cc(Cl)c(Cl)c(Cl)c4)(C(F)(F)F)C3)cc2Cl)CO1 [Compound A126, 2-chloro-N-[(4R)-2-(methylsulfamoyl)isoxazolidin-4-yl]-4-[(5S)-5-(3,4,5-trichlorophenyl)-5-(trifluoromethyl)-4H-isoxazol-3-yl]benzamide]
≥ 80%: percent effect (mortality or growth inhibition) at 200 ppm [1] | percent effect (mortality or growth inhibition) at 200 ppm [2] | mortality at 200 ppm [3] | percent effect (mortality or growth inhibition) at 200 ppm [4] | mortality at 200 ppm [5] | percent control (mortality, anti-feedant effect or growth inhibition) at 12.5 ppm [6] | mortality at 200 ppm [7] | mortality at 200 ppm [8]

Cc1cc(C2=NO[C@@](c3cc(Cl)cc(C(F)(F)F)c3)(C(F)(F)F)C2)ccc1C(=O)N[C@H]1CON(S(=O)(=O)N(C)C)C1 [Compound A91]
≥ 80%: percent effect (mortality or growth inhibition) at 200 ppm [1] | percent effect (mortality or growth inhibition) at 200 ppm [2] | mortality at 200 ppm [3] | percent effect (mortality or growth inhibition) at 200 ppm [4] | mortality at 200 ppm [5] | percent control (mortality, anti-feedant effect or growth inhibition) at 12.5 ppm [6] | mortality at 200 ppm [7] | mortality at 200 ppm [8]

CCS(=O)(=O)N1C[C@@H](NC(=O)c2ccc(C3=NO[C@@](c4cc(Cl)cc(C(F)(F)F)c4)(C(F)(F)F)C3)cc2C)CO1 [Compound A120, 4-[(5S)-5-[3-chloro-5-(trifluoromethyl)phenyl]-5-(trifluoromethyl)-4H-isoxazol-3-yl]-N-[(4R)-2-ethylsulfonylisoxazolidin-4-yl]-2-methyl-benzamide]
≥ 80%: percent effect (mortality or growth inhibition) at 200 ppm [1] | percent effect (mortality or growth inhibition) at 200 ppm [2] | mortality at 200 ppm [3] | percent effect (mortality or growth inhibition) at 200 ppm [4] | mortality at 200 ppm [5] | percent control (mortality, anti-feedant effect or growth inhibition) at 12.5 ppm [6] | mortality at 200 ppm [7] | mortality at 200 ppm [8]

Cc1cc(C2=NO[C@@](c3cc(Cl)cc(C(F)(F)F)c3)(C(F)(F)F)C2)ccc1C(=O)NC1CON(S(C)(=O)=O)C1 (some centres unmarked) [Compound A20]
≥ 80%: percent effect (mortality or growth inhibition) at 200 ppm [1] | percent effect (mortality or growth inhibition) at 200 ppm [2] | mortality at 200 ppm [3] | percent effect (mortality or growth inhibition) at 200 ppm [4] | mortality at 200 ppm [5] | percent control (mortality, anti-feedant effect or growth inhibition) at 12.5 ppm [6] | mortality at 200 ppm [7] | mortality at 200 ppm [8]

Cc1cc(C2=NO[C@@](c3cc(Cl)c(F)c(Cl)c3)(C(F)(F)F)C2)ccc1C(=O)NC1CON(S(=O)(=O)NC(C)(C)C)C1 (some centres unmarked) [Compound A97]
≥ 80%: percent effect (mortality or growth inhibition) at 200 ppm [1] | percent effect (mortality or growth inhibition) at 200 ppm [2] | mortality at 200 ppm [3] | percent effect (mortality or growth inhibition) at 200 ppm [4] | mortality at 200 ppm [5] | percent control (mortality, anti-feedant effect or growth inhibition) at 12.5 ppm [6] | mortality at 200 ppm [7] | mortality at 200 ppm [8]

CCS(=O)(=O)N1C[C@@H](NC(=O)c2ccc(C3=NO[C@@](c4cc(Cl)c(Cl)c(Cl)c4)(C(F)(F)F)C3)cc2Cl)CO1 [Compound A147, 2-chloro-N-[(4R)-2-ethylsulfonylisoxazolidin-4-yl]-4-[(5S)-5-(3,4,5-trichlorophenyl)-5-(trifluoromethyl)-4H-isoxazol-3-yl]benzamide]
≥ 80%: percent effect (mortality or growth inhibition) at 200 ppm [1] | percent effect (mortality or growth inhibition) at 200 ppm [2] | mortality at 200 ppm [3] | percent effect (mortality or growth inhibition) at 200 ppm [4] | mortality at 200 ppm [5] | percent control (mortality, anti-feedant effect or growth inhibition) at 12.5 ppm [6] | mortality at 200 ppm [7] | mortality at 200 ppm [8]
